Data taken from PubChem BioAssay AID226 (DTP/NCI, 2004).
“And” between values parts separate entries of the source, which are not always exact repeats. Identical values can stand only once. Toxic doses and inconclusive results are not listed.

Test system: B6C3F1 mice, intracerebral ependymoblastoma, median survival T/C
Assay: NCI In Vivo Anticancer Drug Screen. Data for tumor model Ependymoblastoma (intracerebral) in B6C3F1 mice
Settings: endpoint: median survival time, higher = longer survival
Procedure: The antitumor activity of compounds was measured in mice bearing transplantable tumors. Survival or tumor size were measured and the results are expressed as the measurement made in the treated group (T) divided by the measurement made in the vehicle treated control group (C). The tumor model used in this assay is Ependymoblastoma (intracerebral) in B6C3F1 mice

[1] = dose: 6.25 mg/kg/injection, schedule: Q01DX005 (ip), vehicle: Klucel (hydroxypropylcellulose) (HPC)
[2] = dose: 12.5 mg/kg/injection, schedule: Q01DX005 (ip), vehicle: Klucel (hydroxypropylcellulose) (HPC)
[3] = dose: 16.0 mg/kg/injection, schedule: Q01DX005 (ip), vehicle: saline with Tween-80
[4] = dose: 25.0 mg/kg/injection, schedule: Q01DX005 (ip), vehicle: Klucel (hydroxypropylcellulose) (HPC)
[5] = dose: 50.0 mg/kg/injection, schedule: Q01DX005 (ip), vehicle: Klucel (hydroxypropylcellulose) (HPC)

`CCCC(=O)OCC1OC(n2cnc3c(=S)nc(N)[nH]c32)C(OC(=O)CCC)C1OC(=O)CCC` (stereo unspecified) was tested, and the T/C (dose: 3.12 mg/kg/injection, schedule: Q01DX005 (ip), vehicle: Klucel (hydroxypropylcellulose) (HPC)) was 102 % of control and 113 % of control, the T/C [1] was 98 % of control and 104 % of control and the T/C [2] was 106 % of control.
`CCCS(=O)CC1NC(=O)NC1=O` (stereo unspecified) was tested, and the T/C (dose: 9.38 mg/kg/injection, schedule: Q01DX005 (ip), vehicle: Klucel (hydroxypropylcellulose) (HPC)) was 101 % of control, the T/C (dose: 18.75 mg/kg/injection, schedule: Q01DX005 (ip), vehicle: Klucel (hydroxypropylcellulose) (HPC)) was 98 % of control and the T/C (dose: 37.5 mg/kg/injection, schedule: Q01DX005 (ip), vehicle: Klucel (hydroxypropylcellulose) (HPC)) was 109 % of control. The T/C (dose: 75.0 mg/kg/injection, schedule: Q01DX005 (ip), vehicle: Klucel (hydroxypropylcellulose) (HPC)) was 106 % of control and the T/C (dose: 150.0 mg/kg/injection, schedule: Q01DX005 (ip), vehicle: Klucel (hydroxypropylcellulose) (HPC)) was 98 % of control.
In the case of `Cc1ncc(CNC(=O)N(CCCl)N=O)c(N)n1`, the T/C (dose: 8.0 mg/kg/injection, schedule: Q01DX001 (ip), vehicle: water) is reported as 108 % of control and 121 % of control, the T/C (dose: 16.0 mg/kg/injection, schedule: Q01DX001 (ip), vehicle: water) is reported as 175 % of control and the T/C (dose: 32.0 mg/kg/injection, schedule: Q01DX001 (ip), vehicle: water) is reported as 262 % of control and 267 % of control.
With `O=C(O)C(O)C(O)C(=O)O.[NH-]C1CCCCC1[NH-].[Pt+2]` (stereo unspecified) the T/C (dose: 2.0 mg/kg/injection, schedule: Q01DX005 (ip), vehicle: dextrose) was 96 % of control and the T/C (dose: 4.0 mg/kg/injection, schedule: Q01DX005 (ip), vehicle: dextrose) was 110 % of control.
`COc1cc2c(c3c1c(=O)c1ccccc1n3C)C=CC(C)(C)O2` was tested, and the T/C (dose: 64.0 mg/kg/injection, schedule: Q01DX005 (ip), vehicle: Klucel (hydroxypropylcellulose) (HPC)) was 114 % of control, the T/C (dose: 128.0 mg/kg/injection, schedule: Q01DX005 (ip), vehicle: suspension in saline) was 108 % of control and the T/C (dose: 256.0 mg/kg/injection, schedule: Q01DX005 (ip), vehicle: suspension in saline) was 120 % of control.
For `Nc1ncn(C2OC(CO)C(O)C2O)c(=O)n1` (stereo unspecified), the T/C (dose: 0.59 mg/kg/injection, schedule: Q03HX024 (ip), vehicle: saline) was 111 % of control, the T/C (dose: 0.75 mg/kg/injection, schedule: Q01DX005 (ip), vehicle: saline) was 116 % of control and the T/C (dose: 1.17 mg/kg/injection, schedule: Q03HX024 (ip), vehicle: saline) was 109 % of control. The T/C (dose: 1.5 mg/kg/injection, schedule: Q01DX005 (ip), vehicle: saline) was 109 % of control, the T/C (dose: 2.34 mg/kg/injection, schedule: Q03HX024 (ip), vehicle: saline) was 116 % of control and the T/C (dose: 3.0 mg/kg/injection, schedule: Q01DX005 (ip), vehicle: saline) was 116 % of control. For the same compound, the T/C (dose: 9.38 mg/kg/injection, schedule: Q03HX024 (ip), vehicle: saline) was 154 % of control.
With `COc1cc([C@@H]2c3cc4c(cc3[C@@H](OC3OC5COC(C)OC5C(O)C3O)[C@H]3COC(=O)[C@H]23)OCO4)cc(OC)c1O` (stereo partly specified) the T/C (dose: 0.5 mg/kg/injection, schedule: Q01DX005 (ip), vehicle: suspension in saline) was 101 % of control, the T/C (dose: 1.0 mg/kg/injection, schedule: Q01DX005 (ip), vehicle: suspension in saline) was 100 % of control and the T/C (dose: 2.0 mg/kg/injection, schedule: Q01DX005 (ip), vehicle: suspension in saline) was 110 % of control and 114 % of control. For the same compound, the T/C (dose: 4.0 mg/kg/injection, schedule: Q01DX005 (ip), vehicle: suspension in saline) was 112 % of control and 120 % of control and the T/C (dose: 16.0 mg/kg/injection, schedule: Q01DX005 (ip), vehicle: suspension in saline) was 102 % of control.
`O=NN(CCCl)C(=O)NC1OC(CO)C(O)C(O)C1O` (stereo unspecified) was tested, and the T/C (dose: 0.31 mg/kg/injection, schedule: Q01DX009 (ip), vehicle: saline) was 104 % of control, the T/C (dose: 0.63 mg/kg/injection, schedule: Q01DX009 (ip), vehicle: saline) was 115 % of control and the T/C (dose: 1.0 mg/kg/injection, schedule: Q01DX005 (ip), vehicle: saline) was 119 % of control. The T/C (dose: 2.0 mg/kg/injection, schedule: Q01DX005 (ip), vehicle: saline) was 113 % of control, the T/C (dose: 4.0 mg/kg/injection, schedule: Q01DX001 (ip), vehicle: saline) was 108 % of control and the T/C (dose: 4.0 mg/kg/injection, schedule: Q01DX005 (ip), vehicle: saline) was 122 % of control. The T/C (dose: 8.0 mg/kg/injection, schedule: Q01DX001 (ip), vehicle: saline) was 105 % of control, the T/C (dose: 16.0 mg/kg/injection, schedule: Q01DX001 (ip), vehicle: saline) was 105 % of control and the T/C (dose: 32.0 mg/kg/injection, schedule: Q01DX001 (ip), vehicle: saline) was 100 % of control. The T/C (dose: 64.0 mg/kg/injection, schedule: Q01DX001 (ip), vehicle: saline) was 108 % of control and the T/C (dose: 128.0 mg/kg/injection, schedule: Q01DX001 (ip), vehicle: saline) was 94 % of control.
With `CN(C)/N=N/c1nc[nH]c1C(N)=O` the T/C (dose: 3.12 mg/kg/injection, schedule: Q01DX005 (ip), vehicle: saline with Tween-80) was 120 % of control, the T/C (dose: 6.25 mg/kg/injection, schedule: Q01DX005 (ip), vehicle: saline with Tween-80) was 114 % of control and the T/C [2] was 115 % of control. The T/C [3] was 111 % of control, the T/C [4] was 114 % of control and the T/C [5] was 120 % of control. The T/C (dose: 100.0 mg/kg/injection, schedule: Q01DX005 (ip), vehicle: saline with Tween-80) was 156 % of control and the T/C (dose: 128.0 mg/kg/injection, schedule: Q01DX005 (ip), vehicle: saline with Tween-80) was 155 % of control.
In the case of `NC(C/[N+]([O-])=N/O)C(=O)O` (stereo unspecified), the T/C (dose: 7.0 mg/kg/injection, schedule: Q01DX005 (ip), vehicle: saline with Tween-80) is reported as 111 % of control, the T/C (dose: 12.5 mg/kg/injection, schedule: Q01DX009 (ip), vehicle: Klucel (hydroxypropylcellulose) (HPC)) is reported as 110 % of control and the T/C (dose: 14.0 mg/kg/injection, schedule: Q01DX005 (ip), vehicle: saline with Tween-80) is reported as 109 % of control. The T/C [3] was 114 % of control, the T/C (dose: 25.0 mg/kg/injection, schedule: Q01DX009 (ip), vehicle: Klucel (hydroxypropylcellulose) (HPC)) was 119 % of control and the T/C (dose: 28.0 mg/kg/injection, schedule: Q01DX005 (ip), vehicle: saline with Tween-80) was 118 % of control. The T/C (dose: 32.0 mg/kg/injection, schedule: Q01DX005 (ip), vehicle: saline with Tween-80) was 118 % of control, the T/C (dose: 50.0 mg/kg/injection, schedule: Q01DX009 (ip), vehicle: Klucel (hydroxypropylcellulose) (HPC)) was 112 % of control and the T/C (dose: 56.0 mg/kg/injection, schedule: Q01DX005 (ip), vehicle: saline with Tween-80) was 119 % of control. For the same compound, the T/C (dose: 64.0 mg/kg/injection, schedule: Q01DX005 (ip), vehicle: saline with Tween-80) was 117 % of control, the T/C (dose: 112.0 mg/kg/injection, schedule: Q01DX005 (ip), vehicle: saline with Tween-80) was 122 % of control and the T/C (dose: 256.0 mg/kg/injection, schedule: Q01DX005 (ip), vehicle: saline with Tween-80) was 109 % of control.
`O=C(NCCCl)NCCCl` was tested, and the T/C [1] was 102 % of control and 105 % of control, the T/C [2] was 102 % of control and 104 % of control and the T/C [4] was 93 % of control and 99 % of control. The T/C [5] was 92 % of control and 103 % of control, the T/C (dose: 100.0 mg/kg/injection, schedule: Q01DX005 (ip), vehicle: Klucel (hydroxypropylcellulose) (HPC)) was 98 % of control and 107 % of control and the T/C (dose: 200.0 mg/kg/injection, schedule: Q01DX005 (ip), vehicle: Klucel (hydroxypropylcellulose) (HPC)) was 96 % of control and 107 % of control. For the same compound, the T/C (dose: 400.0 mg/kg/injection, schedule: Q01DX005 (ip), vehicle: Klucel (hydroxypropylcellulose) (HPC)) was 108 % of control and 87 % of control.
